Results: US20170079278A1 (priority 2015, published 2017)

Columns and labels:
[1] = test system: Coquito (Cyperus rotundus); assay: Field trial atrazine +/- EPAC, weed control in corn; format: in vivo
[2] = test system: Mycosphaerella fijiensis; assay: Sensitivity test of ascospores (germination, germ tube elongation) to azoxystrobin +/- EPAC-F; format: cell-based; details: Black Sigatoka, banana crops
Experimental: In a study in experimental conditions the effectiveness of EPAC-F was evaluated by a sensitivity test to Mycosphaerella fijiensis (from a banana farm in Santa Marta), causal agent of Black Sigatoka, following the recommendations of the Fungicide Resistance Action Committee's (FRAC) to strobilurin fungicides from.
The test is based on measuring the length elongation ascospore germ tube that germinated in culture medium 2% agar, modified with a number of products made by mixing the adjuvant, EPAC-F and fungicide Liege 25 SC, whose active ingredient is Azoxystrobin 250 g/L. Then the following 11 treatments were evaluated are as follows:
T1. Azoxystrobin 25% SC 100 at a dose of 400 cc/Ha. T2. Azoxystrobin 25 SC 50% at doses of 400 cc/Ha.+EPAC 10% T3. Azoxystrobin 25 SC 50% at doses of 400 cc/Ha.+EPAC 20% T4. Azoxystrobin 25 SC 70% at doses of 400 cc/Ha.+EPAC 10% T5. Azoxystrobin 25 SC 60% at doses of 400 cc/Ha.+EPAC 10% T1A. Azoxystrobin SC 25 50% at doses of 200 cc/Ha.+EPAC5% T2A. Azoxystrobin SC 25 50% at doses of 200 cc/Ha.+10% EPAC T3A. Azoxystrobin SC 25 50% at doses of 200 cc/Ha.+15% EPAC T4A. Azoxystrobin SC 25 25% at doses of 200 cc/Ha.+10% EPAC T5A. Azoxystrobin SC 25 25% at doses of 200 cc/Ha.+15% EPAC
The control process involved the use of fungicide Amystar 50 WG with the active ingredient Azoxystrobin 500 g/L. This product is considered direct competition from […]. […]

[3] = test system: Paja de Zorro (Leptochloa filiformis); assay: Field trial butachlor +/- EPAC, weed control; format: in vivo; details: butachlor section
[4] = test system: Coffe Borer Beetle; assay: Field trial chlorpyrifos +/- EPAC, pest control in coffee fields; format: in vivo
[5] = test system: Paja de Zorro (Leptochloa filiformis); assay: Field trial clomazone +/- EPAC, weed control in rice fields; format: in vivo
[6] = test system: White Fly (Aleyrodidae); assay: Field trial cypermethrin +/- EPAC, pest control in tomato crops; format: in vivo
[7] = test system: Liendrepuerco (Echinochia Colonum); assay: Field trial glyphosate +/- EPAC, weed control in rice; format: in vivo; details: A = 100% alone, B = reduced dose + EPAC
[8] = test system: Piñita (Murdania Nudiflora); assay: as above; format: in vivo; details: A = chemical alone at 100%, B = reduced dose + EPAC
[9] = test system: Cortadera (Cortaderia Selloana); assay: as above; format: in vivo; details: A = 100% alone, B = reduced dose + EPAC
[10] = test system: Guardarocio (Digitaria Sanguinalis); assay: as above; format: in vivo; details: A = 100% alone, B = reduced dose + EPAC
[11] = test system: Leptocloa; assay: as above; format: in vivo; details: A = 100% alone, B = reduced dose + EPAC
[12] = test system: adult T. vaporariorum; White Fly (Aleyrodidae); assay: Methamidophos/EPAC-I on adult whitefly on tomato; format: in vivo, Trialeurodes vaporariorum; set-up: concentration or dose not given beside the values; details: tomato crops
Experimental: The effectiveness of EPAC-I was assessed with adult T. vaporariorum under experimental conditions taking into account the percentage of mortality by direct and indirect contact with the insects.
The completion of the performance test EPAC-I with adults of T. vaporariorum was carried out directly on whitefly adults collected from breeding individuals in the “Bio-Systems Center”. These were placed in a box with mesh which allows passage of the droplets in the spray. Product application was performed with an airbrush at a distance of 30 cm and a 45° angle on the application unit, achieving a uniform coverage with fine droplets. The quality was verified through application of a strip (2×2 cm) of water-sensitive paper.
To assemble the test, from tomato plants we selected randomly 5 leaflets per treatment and then were sprayed and once dried, in each bags mesh were placed into which 10 adults whiteflies were placed, and each of these units was duly marked according to the assessed treatment. Tomato plants with the evaluation units were maintained in a room with controlled temperature (20±1° C.), relative humidity (70±10%) and photoperiod of 12 h. The evaluation design was completely randomized and readings from day one after application to day 10 were performed.

[13] = test system: Bledo (Amaranthus Albus); assay: Field trial oxadiazone +/- EPAC, weed control in rice fields; format: in vivo
[14] = test system: Corn; assay: Field trial paraquat +/- EPAC, crop dissecation; format: in vivo; details: A = 100% alone, B = 40% + EPAC 4%
[15] = test system: Falsa Caminadora (Ischaemum rugosum); assay: Field trial pendimethalin +/- EPAC, weed control in rice fields; format: in vivo
[16] = test system: White Fly (Aleyrodidae); assay: Field trial profenophos +/- EPAC, pest control in tomato crops; format: in vivo

## CCNc1nc(Cl)nc(NC(C)C)n1 [Atrazine]
[1]; 7 Days
  % of Weeds Controlled: 93%
[1]; 14 Days
  % of Weeds Controlled: 90%
[1]; 21 Days
  % of Weeds Controlled: 90%

## CO/C=C(\C(=O)OC)c1ccccc1Oc1cc(Oc2ccccc2C#N)ncn1 [Axozystrobin]
[2]
  Fungus Inhibition: % Ascospore Germination Inhibited: 24%
  Fungus Inhibition: % Ascospore elongation Inhibition (>150 microm): 37%

## CCCCOCN(C(=O)CCl)c1c(CC)cccc1CC [Butachlor]
[3]; 3 Days
  % of Weeds Controlled: 93%
[3]; 8 Days
  % of Weeds Controlled: 100%
[3]; 15 Days
  % of Weeds Controlled: 100%

## CCOP(=S)(OCC)Oc1nc(Cl)c(Cl)cc1Cl [Chlorpyrifos]
[4]; 7 Days
  % of Pest Controlled: 88%
[4]; 14 Days
  % of Pest Controlled: 83%
[4]; 21 Days
  % of Pest Controlled: 73%

## CC1(C)CON(Cc2ccccc2Cl)C1=O [Clomazone]
[5]; 3 Days
  % of Weeds Controlled: 97%
[5]; 8 Days
  % of Weeds Controlled: 93%
[5]; 15 Days
  % of Weeds Controlled: 100%

## CC1(C)C(C=C(Cl)Cl)C1C(=O)OC(C#N)c1cccc(Oc2ccccc2)c1 (stereo not shown) [Cypermethrin]
[6]; 3 Days
  % of Pest Controlled: 90%
[6]; 8 Days
  % of Pest Controlled: 87%
[6]; 15 Days
  % of Pest Controlled: 76%

## O=C(O)CNCP(=O)(O)O [Glyphosate, N-phosphonomethyl-glycine]
[7]
  % of Weeds Controlled: 93%
[8]
  % of Weeds Controlled: 83%
[9]
  % of Weeds Controlled: 90%
[10]
  % of Weeds Controlled: 82%
[11]
  % of Weeds Controlled: 100%

## COP(N)(=O)SC (stereo not shown) [Metamidhophos, O, S-dimethyl-phosphoramidothioate]
[12]; 1 Day
  % of Pest Controlled: 10%
[12]; 4 Days
  % of Pest Controlled: 30%
[12]; 6 Days
  % of Pest Controlled: 42%
[12]; 8 Days
  % of Pest Controlled: 46%
[12]; 10 Days
  % of Pest Controlled: 50%

## CC(C)Oc1cc(-n2nc(C(C)(C)C)oc2=O)c(Cl)cc1Cl [Oxadiazone]
[13]; 3 Days
  % of Weeds Controlled: 87%
[13]; 8 Days
  % of Weeds Controlled: 97%
[13]; 15 Days
  % of Weeds Controlled: 100%

## C[n+]1ccc(-c2cc[n+](C)cc2)cc1 [Paraquat]
[14]
  % of Crop Dissecated: 100%

## CCC(CC)Nc1c([N+](=O)[O-])cc(C)c(C)c1[N+](=O)[O-] [Pendimenthaline]
[15]; 3 Days
  % of Weeds Controlled: 86.7%
[15]; 8 Days
  % of Weeds Controlled: 96.7%
[15]; 15 Days
  % of Weeds Controlled: 93%

## CCCSP(=O)(OCC)Oc1ccc(Br)cc1Cl (stereo not shown) [Profenophos]
[16]; 7 Days
  % of Pest Controlled: 92%
[16]; 12 Days
  % of Pest Controlled: 82%
[16]; 15 Days
  % of Pest Controlled: 75%
